Measurements: PubChem BioAssay AID1918942 (Molecular Pharmacology Branch, DTP, NCI, 2023)

Tested on: 743489-274-T-PDC complex spheroid viability
Assay: Anticancer human tumor 743489-274-T-PDC patient-derived renal cell carcinoma cell line growth inhibition
Settings: for IC50: curve of first compound; for viability, T/C: stronger effect = lower value
Outline: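 Drug combinations with the LSD1 inhibitor iadademstat tested on tumor cells co-cultured as spheroids with endothelial cells and mesenchymal stem cells. Concentrations descended in half-log increments from clinical Cmax or 10 microM.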
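Note: spheroids exposed to compounds for 7 days before readout.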
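Throughout, for viability, T/C: 100% = DMSO vehicle control wells.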

Nc1ccccc1NC(=O)c1ccc(CNC(=O)OCc2cccnc2)cc1 + NC1CC1c1ccc(-c2cccc(O)c2)cc1 showed an IC50 (second compound 0.1 µM) of 0.678 µM, an IC50 (second compound 0.316 µM) of 0.773 µM and an IC50 (second compound 1 µM) of 0.642 µM. The IC50 (second compound 3.16 µM) was 1.01 µM, the IC50 (second compound 10 µM) was 1.32 µM and the viability, T/C (second compound 0.1 µM, first compound 0.00949 µM) was 93.2%. For the same molecule, the viability, T/C (second compound 0.1 µM, first compound 0.03 µM) was 88.5%, the viability, T/C (second compound 0.1 µM, first compound 0.0949 µM) was 87.5% and the viability, T/C (second compound 0.1 µM, first compound 0.3 µM) was 62.6%. The viability, T/C (second compound 0.1 µM, first compound 0.949 µM) was 45.8%, the viability, T/C (second compound 0.1 µM, first compound 3 µM) was 29.2% and the viability, T/C (second compound 0.316 µM, first compound 0.00949 µM) was 95.7%. The viability, T/C (second compound 0.316 µM, first compound 0.03 µM) was 86.8%, the viability, T/C (second compound 0.316 µM, first compound 0.0949 µM) was 84.5% and the viability, T/C (second compound 0.316 µM, first compound 0.3 µM) was 65.8%. It also gave a viability, T/C (second compound 0.316 µM, first compound 0.949 µM) of 45.5%, a viability, T/C (second compound 0.316 µM, first compound 3 µM) of 40.3% and a viability, T/C (second compound 1 µM, first compound 0.00949 µM) of 98.6%. It also gave a viability, T/C (second compound 1 µM, first compound 0.03 µM) of 87.5%, a viability, T/C (second compound 1 µM, first compound 0.0949 µM) of 83.4% and a viability, T/C (second compound 1 µM, first compound 0.3 µM) of 62.3%. For the same molecule, the viability, T/C (second compound 1 µM, first compound 0.949 µM) was 43.2%, the viability, T/C (second compound 1 µM, first compound 3 µM) was 24.6% and the viability, T/C (second compound 3.16 µM, first compound 0.00949 µM) was 92.8%. The viability, T/C (second compound 3.16 µM, first compound 0.03 µM) was 84.5%, the viability, T/C (second compound 3.16 µM, first compound 0.0949 µM) was 81.6% and the viability, T/C (second compound 3.16 µM, first compound 0.3 µM) was 72.5%. The viability, T/C (second compound 3.16 µM, first compound 0.949 µM) was 49%, the viability, T/C (second compound 3.16 µM, first compound 3 µM) was 36.5% and the viability, T/C (second compound 10 µM, first compound 0.00949 µM) was 95.5%. It also gave a viability, T/C (second compound 10 µM, first compound 0.03 µM) of 87.5%, a viability, T/C (second compound 10 µM, first compound 0.0949 µM) of 77.9% and a viability, T/C (second compound 10 µM, first compound 0.3 µM) of 70.1%. It also gave a viability, T/C (second compound 10 µM, first compound 0.949 µM) of 58.4% and a viability, T/C (second compound 10 µM, first compound 3 µM) of 35.4%.
In the case of O=C(c1cc(Cc2n[nH]c(=O)c3ccccc23)ccc1F)N1CCN(C(=O)C2CC2)CC1 + NC1CC1c1ccc(-c2cccc(O)c2)cc1, the IC50 (second compound 0.1 µM) is reported as > 10 µM, the IC50 (second compound 0.316 µM) is reported as > 10 µM and the IC50 (second compound 1 µM) is reported as > 10 µM. For the same molecule, the IC50 (second compound 3.16 µM) was > 10 µM, the IC50 (second compound 10 µM) was > 10 µM and the viability, T/C (second compound 0.1 µM, first compound 0.0316 µM) was 112%. It also gave a viability, T/C (second compound 0.1 µM, first compound 0.1 µM) of 115%, a viability, T/C (second compound 0.1 µM, first compound 0.316 µM) of 106% and a viability, T/C (second compound 0.1 µM, first compound 1 µM) of 113%. The viability, T/C (second compound 0.1 µM, first compound 3.16 µM) was 95.7%, the viability, T/C (second compound 0.1 µM, first compound 10 µM) was 92.5% and the viability, T/C (second compound 0.316 µM, first compound 0.0316 µM) was 105%. It also gave a viability, T/C (second compound 0.316 µM, first compound 0.1 µM) of 110%, a viability, T/C (second compound 0.316 µM, first compound 0.316 µM) of 132% and a viability, T/C (second compound 0.316 µM, first compound 1 µM) of 97.4%. For the same molecule, the viability, T/C (second compound 0.316 µM, first compound 3.16 µM) was 107%, the viability, T/C (second compound 0.316 µM, first compound 10 µM) was 115% and the viability, T/C (second compound 1 µM, first compound 0.0316 µM) was 117%. The viability, T/C (second compound 1 µM, first compound 0.1 µM) was 104%, the viability, T/C (second compound 1 µM, first compound 0.316 µM) was 114% and the viability, T/C (second compound 1 µM, first compound 1 µM) was 93.8%. For the same molecule, the viability, T/C (second compound 1 µM, first compound 3.16 µM) was 93.3%, the viability, T/C (second compound 1 µM, first compound 10 µM) was 94.7% and the viability, T/C (second compound 3.16 µM, first compound 0.0316 µM) was 98.1%. For the same molecule, the viability, T/C (second compound 3.16 µM, first compound 0.1 µM) was 103%, the viability, T/C (second compound 3.16 µM, first compound 0.316 µM) was 117% and the viability, T/C (second compound 3.16 µM, first compound 1 µM) was 106%. The viability, T/C (second compound 3.16 µM, first compound 3.16 µM) was 100%, the viability, T/C (second compound 3.16 µM, first compound 10 µM) was 99.3% and the viability, T/C (second compound 10 µM, first compound 0.0316 µM) was 118%. It also gave a viability, T/C (second compound 10 µM, first compound 0.1 µM) of 121%, a viability, T/C (second compound 10 µM, first compound 0.316 µM) of 120% and a viability, T/C (second compound 10 µM, first compound 1 µM) of 120%. It also gave a viability, T/C (second compound 10 µM, first compound 3.16 µM) of 95.8% and a viability, T/C (second compound 10 µM, first compound 10 µM) of 94.2%.
